Measured values reported in patent US20250092065A1, “2-(INDAZOL-5-YL)-6-(PIPERIDIN-4-YL)-1,7-NAPHTHYRIDINE DERIVATIVES AND RELATED COMPOUNDS AS MODULATORS FOR SPLICING NUCLEIC ACIDS AND FOR THE TREATMENT OF PROLIFERATIVE DISEASES” (REMIX THERAPEUTICS INC., priority 2022, published 2025).
pIC50: −log10 of the molar value. Like-named read-outs stand apart in the source and are kept apart here.

Tests used:
HTT mRNA = test: RT-qPCR splicing assay, HTT mRNA canonical (CJ) and alternative (AJ) junction; type: cell-based, human; conditions: Homo sapiens; for AC50: HTT alternative junction mRNA, read-out: HTT AJ (increase in AJ mRNA, AC50)
How it was run: (§1)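 Splice switching quantified in compound-treated A673/K562 cells after 24 h exposure (top dose 10 uM, 3-fold steps, ≤0.25% DMSO), using CJ and AJ qPCR assays run at least in duplicate. RQ derived by 2^(−ΔΔCt), then percentage response.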

MYB mRNA = test: RT-qPCR splicing assay, MYB mRNA canonical (CJ) and alternative (AJ) junction; type: cell-based, human; conditions: Homo sapiens; for AC50: MYB alternative junction mRNA, read-out: MYB AJ (increase in AJ mRNA, AC50)
How it was run: as §1

SMN2 mRNA = test: RT-qPCR splicing assay, SMN2 mRNA; type: cell-based, human; conditions: Homo sapiens, canonical junction qPCR panel, Table 4; read-out: SMN2 IC50 (decrease in CJ mRNA levels)
How it was run: as §1

Target C = test: RT-qPCR canonical junction panel assay, Target C mRNA; type: cell-based; conditions: Table 4, read-out: Target C IC50 (decrease in CJ mRNA levels)
How it was run: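 A673 or K562 cells treated with compound; CJ mRNA quantified by junction-spanning RT-qPCR probe after cDNA synthesis, normalised to GAPDH, GUSB or PPIA and DMSO (2^−ΔΔCt), scaled to set ΔCt assay window; IC50 from 4-parameter fit of CJ decrease.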

K562 cells = test: Cell Titer Glo 2.0 cell viability (toxicity) assay, K562; conditions: 500 cells/well, 72 hours
Protocol: Compounds described herein were screened for toxicity in K562 (human chronic myelogenous leukemia) and SH-SY5Y (human neuroblastoma) cells using a Cell Titer Glo 2.0 assay.
Cells were plated at 500 cells/well (K562 cells) in 45 μL of IMDM supplemented with 10% FBS in a 384-well opaque plate. Wells containing only medium were used as a blank control. Test compounds (e.g., compounds of Formula (I) or (II)) were first serially diluted in DMSO then diluted 1:100 with EIDM+10% FBS. The final concentration of DMSO was 0.1% in each well. The cells were incubated for 72 hours at 37° C. and 5% CO2 before assaying with Cell Titer Glo 2.0 reagent.

[1] = HTT canonical junction mRNA, RT-qPCR, read-out: HTT CJ (decrease in CJ mRNA levels, IC50)
[2] = canonical junction qPCR panel, Table 4, read-out: HTT IC50 (decrease in CJ mRNA levels)
[3] = MYB canonical junction mRNA, RT-qPCR, read-out: MYB CJ (decrease in CJ mRNA levels, IC50)
[4] = canonical junction qPCR panel, Table 4, read-out: MYB IC50 (decrease in CJ mRNA levels)

SMILES | AC50 (HTT mRNA; RT-qPCR) [µM] | pIC50 (HTT mRNA; [1]) | pIC50 (HTT mRNA; [2]) | AC50 (MYB mRNA; RT-qPCR) [µM] | pIC50 (MYB mRNA; [3]) | pIC50 (MYB mRNA; [4]) | pIC50 (SMN2 mRNA) | pIC50 (Target C) | Effect of Exemplary Compounds on Cell Viability, K562 (K562 cells)
Cc1c(O)c(-c2ncc3nc(C4CCNC4)ccc3n2)cc2cn(C)nc12 (stereo not drawn) [Compound 397, 2,7-dimethyl-5-[6-(pyrrolidin-3-yl)pyrido[3,2-d]pyrimidin-2-yl]indazol-6-ol; trifluoroacetic acid] | 1 to 10 | 5.00 to 6.00 | 5.00 to 6.00 | 0.1 to 1 | 6.00 to 7.00 | 6.00 to 7.00 | > 7.00 | < 5.00 | B (B represents 100-1000 nM)
Cc1c(O)c(-c2ncc3nc([C@H]4CCNC4)ccc3n2)cc2cn(C)nc12 [Compound 399] | > 10 | < 5.00 | < 5.00 | 1 to 10 | 5.00 to 6.00 | 5.00 to 6.00 | 6.00 to 7.00 | < 5.00 | C (C represents 1000-9999 nM)
Cn1cc2cc(-c3ncc4nc(C5CCNCC5)ccc4n3)c(O)c(C#N)c2n1 [Compound 403, 6-hydroxy-2-methyl-5-[6-(piperidin-4-yl)pyrido[3,2-d]pyrimidin-2-yl]indazole-7-carbonitrile; trifluoroacetic acid] | 0.1 to 1 | 6.00 to 7.00 | 6.00 to 7.00 | < 0.1 | 6.00 to 7.00 | 6.00 to 7.00 | > 7.00 | 5.00 to 6.00 | B (B represents 100-1000 nM)
Cn1cc2cc(-c3ccc4nc(N5CCC(NC(C)(C)C)C5)ncc4n3)c(O)cc2n1 (stereo not drawn) [Compound 404, 5-{2-[3-(tert-butylamino)pyrrolidin-1-yl]pyrido[3,2-d]pyrimidin-6-yl}-2-methylindazol-6-ol] | < 0.1 | > 7.00 | > 7.00 | 0.1 to 1 | 6.00 to 7.00 | 6.00 to 7.00 | > 7.00 | > 7.00 | B (B represents 100-1000 nM)
COc1cc(-c2ccc3nc(N4CCC(NC(C)(C)C)C4)ncc3n2)cnn1 (stereo not drawn) [Compound 405, N-tert-butyl-1-[6-(6-methoxypyridazin-4-yl)pyrido[3,2-d]pyrimidin-2-yl]pyrrolidin-3-amine] | 1 to 10 | 5.00 to 6.00 | 5.00 to 6.00 | 1 to 10 | 5.00 to 6.00 | 5.00 to 6.00 | 5.00 to 6.00 | 5.00 to 6.00 | C (C represents 1000-9999 nM)
CN[C@H]1CCN(c2ccc3nc(-c4cc(C#N)c5nc(C)cn5c4)ncc3n2)C1 [Compound 406, 2-methyl-6-{6-[(3S)-3-(methylamino)pyrrolidin-1-yl]pyrido[3,2-d]pyrimidin-2-yl}imidazo[1,2-a]pyridine-8-carbonitrile] | 1 to 10 | 6.00 to 7.00 | 6.00 to 7.00 | 0.1 to 1 | 5.00 to 6.00 | 5.00 to 6.00 | 6.00 to 7.00 | 5.00 to 6.00 | B (B represents 100-1000 nM)
CN[C@@H]1CCN(c2ccc3nc(-c4cc(C#N)c5nc(C)cn5c4)ncc3n2)C1 [Compound 407, 2-methyl-6-{6-[(3R)-3-(methylamino)pyrrolidin-1-yl]pyrido[3,2-d]pyrimidin-2-yl}imidazo[1,2-a]pyridine-8-carbonitrile] | 1 to 10 | 6.00 to 7.00 | 6.00 to 7.00 | 0.1 to 1 | 6.00 to 7.00 | 6.00 to 7.00 | > 7.00 | 5.00 to 6.00 | B (B represents 100-1000 nM)
Cc1nc2cc(O)c(-c3ccc4nc(N5CCNCC5)ccc4n3)cc2o1 [Compound 408, 2-methyl-6-[6-(piperazin-1-yl)-1,5-naphthyridin-2-yl]-1,3-benzoxazol-5-ol] | 1 to 10 | 6.00 to 7.00 | 6.00 to 7.00 | 0.1 to 1 | 6.00 to 7.00 | 6.00 to 7.00 | > 7.00 | 5.00 to 6.00 | B (B represents 100-1000 nM)
Cc1nc2cc(O)c(-c3ccc4nc(N5CCN[C@@H](C)C5)ccc4n3)cc2o1 [Compound 409] | 0.1 to 1 | 6.00 to 7.00 | 6.00 to 7.00 | 0.1 to 1 | 6.00 to 7.00 | 6.00 to 7.00 | > 7.00 | 5.00 to 6.00 | B (B represents 100-1000 nM)
Cc1nc2cc(O)c(-c3ccc4nc(N5CCN6CCCC6C5)ccc4n3)cc2o1 (stereo not drawn) [Compound 410] | 0.1 to 1 | 6.00 to 7.00 | 6.00 to 7.00 | 0.1 to 1 | 6.00 to 7.00 | 6.00 to 7.00 | > 7.00 | 6.00 to 7.00 | B (B represents 100-1000 nM)
Cc1nc2cc(O)c(-c3ccc4nc(N5CCNC6(CC6)C5)ccc4n3)cc2o1 [Compound 411] | > 10 | 5.00 to 6.00 | 5.00 to 6.00 | 0.1 to 1 | 6.00 to 7.00 | 6.00 to 7.00 | > 7.00 | 5.00 to 6.00 | C (C represents 1000-9999 nM)
Cc1nc2cc(O)c(-c3ccc4nc(N5CCC(NC(C)(C)C)CC5)ccc4n3)cc2o1 [Compound 412] | 0.1 to 1 | 6.00 to 7.00 | 6.00 to 7.00 | 0.1 to 1 | 6.00 to 7.00 | 6.00 to 7.00 | 6.00 to 7.00 | 6.00 to 7.00 | B (B represents 100-1000 nM)
Cc1nc2cc(O)c(-c3ccc4nc(N5CC[C@@H](NC(C)(C)C)C5)ncc4n3)cc2o1 [Compound 413, 6-{2-[(3R)-3-(tert-butylamino)pyrrolidin-1-yl]pyrido[3,2-d]pyrimidin-6-yl}-2-methyl-1,3-benzoxazol-5-ol] | < 0.1 | > 7.00 | > 7.00 | < 0.1 | > 7.00 | > 7.00 | > 7.00 | > 7.00 | B (B represents 100-1000 nM)
Cc1nc2cc(O)c(-c3ccc4nc(N5CC[C@H](NC(C)(C)C)C5)ncc4n3)cc2o1 [Compound 414, 6-{2-[(3S)-3-(tert-butylamino)pyrrolidin-1-yl]pyrido[3,2-d]pyrimidin-6-yl}-2-methyl-1,3-benzoxazol-5-ol] | 0.1 to 1 | > 7.00 | > 7.00 | 1 to 10 | 5.00 to 6.00 | 5.00 to 6.00 | 6.00 to 7.00 | 5.00 to 6.00 | B (B represents 100-1000 nM)
Cc1nc2c(C)c(O)c(-c3ccc4nc(N5CC[C@H](NC(C)C)C5)ncc4n3)cc2o1 [Compound 416, 6-{2-[(3S)-3-(isopropylamino)pyrrolidin-1-yl]pyrido[3,2-d]pyrimidin-6-yl}-2,4-dimethyl-1,3-benzoxazol-5-ol] | < 0.1 | > 7.00 | > 7.00 | < 0.1 | > 7.00 | > 7.00 | > 7.00 | > 7.00 | A (A represents <100 nM)
Cc1nc2cc(O)c(-c3ccc4cc(N5CC[C@@H](NC(C)(C)C)C5)ncc4n3)cc2o1 [Compound 417] | 1 to 10 | 6.00 to 7.00 | 6.00 to 7.00 | 0.1 to 1 | 6.00 to 7.00 | 6.00 to 7.00 | > 7.00 | 5.00 to 6.00 | B (B represents 100-1000 nM)
Cc1nc2cc(O)c(-c3ccc4nc(N5CCN[C@@H](C6CC6)C5)ccc4n3)cc2o1 [Compound 418] | 0.1 to 1 | 6.00 to 7.00 | 6.00 to 7.00 | 0.1 to 1 | 6.00 to 7.00 | 6.00 to 7.00 | 6.00 to 7.00 | 6.00 to 7.00 | B (B represents 100-1000 nM)
Cc1nc2cc(O)c(-c3ccc4nc(N5C[C@@H](C)N[C@@H](C6CC6)C5)ccc4n3)cc2o1 [Compound 419] | 0.1 to 1 | 6.00 to 7.00 | 6.00 to 7.00 | 0.1 to 1 | 6.00 to 7.00 | 6.00 to 7.00 | > 7.00 | 6.00 to 7.00 | B (B represents 100-1000 nM)
Cc1nc2cc(O)c(-c3ccc4nc(N5C[C@@H](C)N[C@@H](C)C5)ccc4n3)cc2o1 [Compound 420] | 1 to 10 | 6.00 to 7.00 | 6.00 to 7.00 | 0.1 to 1 | 6.00 to 7.00 | 6.00 to 7.00 | > 7.00 | 5.00 to 6.00 | B (B represents 100-1000 nM)
